Values quoted from earlier work in patent US20210130806A1, “ENGINEERED BACTERIA EXPRESSING RACEMASE FOR TREATING DISEASES ASSOCIATED WITH HYPERAMMONEMIA” (Synlogic Operating Company, Inc., priority 2017, published 2021).

How the values were obtained:
E. coli = conditions: in vitro and in clinical studies
hepatic encephalopathy = conditions: compared with placebo, over a 6-month period

For CO[C@H]1/C=C/O[C@@]2(C)Oc3c(C)c(O)c4c(O)c(c5c(nc6cc(C)ccn65)c4c3C2=O)NC(=O)/C(C)=C\C=C\[C@H](C)[C@H](O)[C@@H](C)[C@@H](O)[C@@H](C)[C@H](OC(C)=O)[C@@H]1C [Rifaximin], the “activity against E. coli” value (E. coli) is listed as “active” and the “risk of an episode of hepatic encephalopathy” value (hepatic encephalopathy) is listed as “significantly reduce”.
